Laboratory results reported in ChEMBL document CHEMBL1201862, “PubChem BioAssay data set” (2004).
Calls of active or inactive are those of the source.

Experiments:
Leucine aminopeptidase = target: T1, Leucine aminopeptidase (Plasmodium falciparum 3D7, UniProt Q8IL11); experiment: P. falciparum M17LAP inhibitors, primary screen, biochemical, fluorogenic H-Leu-NHMec substrate, 1536-well (AID 1619); format: functional
T1 sequence (Q8IL11 whole entry): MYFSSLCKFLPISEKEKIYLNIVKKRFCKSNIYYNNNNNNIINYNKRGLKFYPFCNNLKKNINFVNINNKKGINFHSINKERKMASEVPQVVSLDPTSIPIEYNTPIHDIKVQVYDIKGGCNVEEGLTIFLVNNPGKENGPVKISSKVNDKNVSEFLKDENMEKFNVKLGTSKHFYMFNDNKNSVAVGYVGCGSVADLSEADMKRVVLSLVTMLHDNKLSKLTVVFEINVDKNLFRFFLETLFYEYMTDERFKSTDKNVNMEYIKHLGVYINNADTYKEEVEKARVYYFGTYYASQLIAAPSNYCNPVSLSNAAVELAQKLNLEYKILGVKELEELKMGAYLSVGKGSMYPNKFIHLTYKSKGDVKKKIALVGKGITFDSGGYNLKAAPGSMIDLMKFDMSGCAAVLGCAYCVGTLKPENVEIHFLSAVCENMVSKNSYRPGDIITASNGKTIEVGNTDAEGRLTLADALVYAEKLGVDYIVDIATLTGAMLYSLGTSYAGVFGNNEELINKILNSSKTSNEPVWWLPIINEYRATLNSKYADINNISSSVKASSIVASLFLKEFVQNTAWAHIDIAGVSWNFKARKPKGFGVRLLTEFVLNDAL

[1] = Counterscreen for IDE inhibitors: Luminescence-based cell-based high throughput dose response assay to identify compounds that are cytotoxic to HEK cells. [Related pubchem assays: 434962 (Primary screen (IDE inhibitors in singlicate)), 449730 (Counterscreen (Cytotoxicity in triplicate)), 435028 (Confirmation (IDE inhibitors in triplicate)) …; format: functional; settings: HEK293
Insulin-degrading enzyme = target: T2, Insulin-degrading enzyme (Homo sapiens, UniProt P14735); experiment: Dose Response: Fluorescence polarization-based cell-based high throughput dose response assay for inhibitors of insulin-degrading enzyme (IDE). [Related pubchem assays: 434962 (Primary screen (IDE inhibitors in singlicate)), 449730 (Counterscreen (Cytotoxicity in triplicate)), 435028 (Confirmation (IDE inhibitors in triplicate)), 434984 (Summary …; format: functional
T2 sequence (P14735 whole entry): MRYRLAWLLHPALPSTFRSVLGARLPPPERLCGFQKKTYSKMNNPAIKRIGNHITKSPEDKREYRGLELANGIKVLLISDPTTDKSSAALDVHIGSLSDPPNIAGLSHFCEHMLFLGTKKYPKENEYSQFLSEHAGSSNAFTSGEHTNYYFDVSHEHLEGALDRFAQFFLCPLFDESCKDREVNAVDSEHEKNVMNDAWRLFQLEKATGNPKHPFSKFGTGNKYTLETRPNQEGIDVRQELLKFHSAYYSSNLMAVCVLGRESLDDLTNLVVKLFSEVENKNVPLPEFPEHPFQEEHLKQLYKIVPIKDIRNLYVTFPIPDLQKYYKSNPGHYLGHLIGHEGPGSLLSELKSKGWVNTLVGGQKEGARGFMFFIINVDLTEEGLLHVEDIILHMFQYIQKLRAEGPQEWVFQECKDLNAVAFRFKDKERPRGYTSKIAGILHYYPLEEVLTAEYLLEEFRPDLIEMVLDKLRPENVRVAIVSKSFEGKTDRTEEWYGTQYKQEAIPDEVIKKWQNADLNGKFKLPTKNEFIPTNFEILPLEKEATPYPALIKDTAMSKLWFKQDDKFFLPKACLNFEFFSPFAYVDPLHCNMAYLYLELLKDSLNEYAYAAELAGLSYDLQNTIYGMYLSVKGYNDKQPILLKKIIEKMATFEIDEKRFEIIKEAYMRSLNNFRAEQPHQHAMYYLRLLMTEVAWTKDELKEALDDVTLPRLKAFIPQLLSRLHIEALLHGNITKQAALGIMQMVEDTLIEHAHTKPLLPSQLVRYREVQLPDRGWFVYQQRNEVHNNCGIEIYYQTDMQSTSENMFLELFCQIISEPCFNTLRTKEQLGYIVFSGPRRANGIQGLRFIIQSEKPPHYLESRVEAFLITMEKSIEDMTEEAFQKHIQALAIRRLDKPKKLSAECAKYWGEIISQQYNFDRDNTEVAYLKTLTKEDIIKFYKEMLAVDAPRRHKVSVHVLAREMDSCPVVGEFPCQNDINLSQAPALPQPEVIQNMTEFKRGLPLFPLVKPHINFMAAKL

[2] = enhancers of respiration in Yfh1-depleted yeast, dose response, Friedreich's ataxia, plus single-dose screen (AID 1465); format: functional;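 also: yeast depleted of Yfh1p frataxin homolog grown on glycerol needing respiration; WST-1 tetrazolium dye reduction as measure of cellular dehydrogenase metabolic activity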
Cytochrome P450 2D6 = Cytochrome P450 2D6 (Homo sapiens, UniProt P10635); experiment: qHTS Assay for Inhibitors and Substrates of Cytochrome P450 2D6. [Related pubchem assays: 410 ]; format: ADME; settings: read-out: Potency
Sequence of Cytochrome P450 2D6 (P10635 whole entry): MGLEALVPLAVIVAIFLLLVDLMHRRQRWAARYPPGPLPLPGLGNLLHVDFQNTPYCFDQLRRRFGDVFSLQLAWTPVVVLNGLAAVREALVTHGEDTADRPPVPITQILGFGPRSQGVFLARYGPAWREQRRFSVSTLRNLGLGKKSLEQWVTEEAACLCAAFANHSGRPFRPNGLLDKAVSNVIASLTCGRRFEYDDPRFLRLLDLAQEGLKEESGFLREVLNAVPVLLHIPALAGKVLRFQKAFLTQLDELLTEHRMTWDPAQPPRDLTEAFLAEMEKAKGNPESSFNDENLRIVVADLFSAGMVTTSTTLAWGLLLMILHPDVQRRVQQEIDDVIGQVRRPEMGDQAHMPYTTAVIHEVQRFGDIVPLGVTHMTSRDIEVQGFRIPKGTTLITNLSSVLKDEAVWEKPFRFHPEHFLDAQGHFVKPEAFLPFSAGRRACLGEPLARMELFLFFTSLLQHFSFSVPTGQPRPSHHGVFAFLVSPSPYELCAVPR

HEK293 [3] = experiment: NOD1 signaling inhibitors, primary screen, cell-based, luminescence, uHTS (AID 1578); format: functional; settings: Homo sapiens
HEK293 [4] = experiment: cells; format: functional, cell-based; settings: Homo sapiens
[5] = target: Transitional endoplasmic reticulum ATPase (Homo sapiens, UniProt P55072, C522A); experiment: C522A mutant p97 ATPase inhibitors, dose response, counter-screen for p97 inhibitor project, biochemical, luminescence (AID 1544)
Sequence of Transitional endoplasmic reticulum ATPase (Homo sapiens, UniProt P55072, C522A) (P55072 2-806 C522A limits assumed): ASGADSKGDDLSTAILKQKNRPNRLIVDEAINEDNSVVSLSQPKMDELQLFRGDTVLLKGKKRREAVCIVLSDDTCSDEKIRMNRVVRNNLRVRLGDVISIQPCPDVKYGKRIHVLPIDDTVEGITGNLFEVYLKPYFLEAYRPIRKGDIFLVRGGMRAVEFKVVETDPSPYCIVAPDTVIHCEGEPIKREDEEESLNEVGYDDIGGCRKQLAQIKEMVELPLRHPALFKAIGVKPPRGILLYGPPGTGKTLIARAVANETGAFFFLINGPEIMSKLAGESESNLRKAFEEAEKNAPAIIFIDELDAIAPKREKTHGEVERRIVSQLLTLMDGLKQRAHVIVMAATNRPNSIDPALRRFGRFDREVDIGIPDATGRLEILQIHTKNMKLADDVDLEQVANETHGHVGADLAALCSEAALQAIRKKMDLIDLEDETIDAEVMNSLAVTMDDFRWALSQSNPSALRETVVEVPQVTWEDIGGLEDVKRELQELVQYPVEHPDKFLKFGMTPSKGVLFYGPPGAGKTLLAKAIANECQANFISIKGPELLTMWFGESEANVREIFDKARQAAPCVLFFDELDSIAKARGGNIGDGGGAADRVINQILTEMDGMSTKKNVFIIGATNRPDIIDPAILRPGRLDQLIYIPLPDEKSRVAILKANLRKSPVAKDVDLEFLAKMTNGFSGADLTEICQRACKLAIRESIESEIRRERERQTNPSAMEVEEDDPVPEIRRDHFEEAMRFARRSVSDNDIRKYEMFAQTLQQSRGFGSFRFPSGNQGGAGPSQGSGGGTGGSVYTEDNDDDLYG

HEK293 [6] = experiment: cells; format: functional, cell-based; settings: Homo sapiens; remark: listed apart in the source
[7] = HIV-1 Env-mediated cell fusion inhibitors, dose response, CCR5-tropic Env (AID 2279); format: functional
HEK293 [8] = experiment: NOD2 signaling inhibitors in MDP-stimulated cells, cell-based, uHTS, luminescence (AID 2001); format: functional; settings: Homo sapiens
[9] = target: Transitional endoplasmic reticulum ATPase (Homo sapiens, UniProt P55072); experiment: p97 ATPase inhibitors, dose response, biochemical (AID 1534)
Sequence of Transitional endoplasmic reticulum ATPase (Homo sapiens, UniProt P55072) (P55072 whole entry): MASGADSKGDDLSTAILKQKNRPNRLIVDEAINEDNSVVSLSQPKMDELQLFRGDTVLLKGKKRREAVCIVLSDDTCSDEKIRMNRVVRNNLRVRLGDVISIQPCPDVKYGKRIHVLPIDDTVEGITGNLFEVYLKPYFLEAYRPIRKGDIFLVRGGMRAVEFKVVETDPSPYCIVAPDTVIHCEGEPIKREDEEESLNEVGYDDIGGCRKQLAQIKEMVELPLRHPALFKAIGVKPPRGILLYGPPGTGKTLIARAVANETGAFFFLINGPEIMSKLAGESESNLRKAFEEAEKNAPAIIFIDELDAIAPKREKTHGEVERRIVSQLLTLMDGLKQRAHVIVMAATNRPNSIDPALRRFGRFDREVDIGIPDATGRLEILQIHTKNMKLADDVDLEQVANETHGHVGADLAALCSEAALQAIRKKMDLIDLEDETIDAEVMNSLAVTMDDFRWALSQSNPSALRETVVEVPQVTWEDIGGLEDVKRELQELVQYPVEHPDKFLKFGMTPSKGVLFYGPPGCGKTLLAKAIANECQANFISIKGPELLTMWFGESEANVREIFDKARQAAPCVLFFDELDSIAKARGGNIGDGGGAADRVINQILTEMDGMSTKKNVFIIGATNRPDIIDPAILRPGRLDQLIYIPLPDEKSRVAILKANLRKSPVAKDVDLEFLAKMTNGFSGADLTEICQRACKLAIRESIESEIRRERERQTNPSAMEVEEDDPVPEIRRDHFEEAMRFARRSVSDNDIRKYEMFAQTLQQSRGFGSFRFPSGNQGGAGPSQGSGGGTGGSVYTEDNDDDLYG

[10] = target: Induced myeloid leukemia cell differentiation protein Mcl-1 (Homo sapiens, UniProt Q07820); format: functional
Nonstructural protein 1 = Nonstructural protein 1 (Influenza A virus, UniProt Q194T2); format: functional, Influenza A virus (A/California/07/2009(H1N1))
Sequence of Nonstructural protein 1 (Q194T2 whole entry): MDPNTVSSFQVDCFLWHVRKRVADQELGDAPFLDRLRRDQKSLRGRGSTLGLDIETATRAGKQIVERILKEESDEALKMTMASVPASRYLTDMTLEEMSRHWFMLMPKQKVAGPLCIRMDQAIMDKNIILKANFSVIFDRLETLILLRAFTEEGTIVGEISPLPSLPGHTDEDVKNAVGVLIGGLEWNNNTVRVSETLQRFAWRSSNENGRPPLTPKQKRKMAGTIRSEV

Vero = Vero cell cytotoxicity, cytotoxicity control for flavivirus capping enzyme inhibitors (AID 588742); format: functional; settings: Chlorocebus sabaeus
Genome polyprotein = Genome polyprotein (dengue virus type 2, UniProt P29990); experiment: Dengue-2 NS5 methyltransferase inhibitors, primary screen, biochemical, confirmation dose response (AID 588689); format: functional
Sequence of Genome polyprotein (P29990 2492-3391 limits assumed): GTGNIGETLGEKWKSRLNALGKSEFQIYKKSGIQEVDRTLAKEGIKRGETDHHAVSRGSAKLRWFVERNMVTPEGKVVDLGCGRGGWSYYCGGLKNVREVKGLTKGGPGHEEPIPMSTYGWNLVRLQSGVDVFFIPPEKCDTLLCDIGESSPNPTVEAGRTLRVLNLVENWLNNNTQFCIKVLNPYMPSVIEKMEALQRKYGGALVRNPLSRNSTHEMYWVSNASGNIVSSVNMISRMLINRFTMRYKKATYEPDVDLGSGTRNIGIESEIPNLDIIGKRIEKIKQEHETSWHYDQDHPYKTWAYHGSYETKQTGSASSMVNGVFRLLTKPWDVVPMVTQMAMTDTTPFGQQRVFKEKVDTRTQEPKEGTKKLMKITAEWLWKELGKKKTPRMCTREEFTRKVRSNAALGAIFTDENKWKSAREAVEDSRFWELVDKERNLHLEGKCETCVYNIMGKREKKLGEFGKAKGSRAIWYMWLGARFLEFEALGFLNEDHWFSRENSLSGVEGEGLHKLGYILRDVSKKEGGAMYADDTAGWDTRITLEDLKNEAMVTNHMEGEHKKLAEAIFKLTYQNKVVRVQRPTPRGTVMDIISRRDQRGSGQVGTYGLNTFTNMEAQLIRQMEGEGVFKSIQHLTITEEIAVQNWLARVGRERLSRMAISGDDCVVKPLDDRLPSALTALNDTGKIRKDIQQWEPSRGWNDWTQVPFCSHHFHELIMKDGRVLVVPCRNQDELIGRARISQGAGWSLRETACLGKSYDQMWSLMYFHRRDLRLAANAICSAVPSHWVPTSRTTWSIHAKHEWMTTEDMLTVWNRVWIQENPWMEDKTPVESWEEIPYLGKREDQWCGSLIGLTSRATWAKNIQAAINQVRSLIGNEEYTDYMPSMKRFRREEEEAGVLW

[11] = target: T3, Histone-lysine N-methyltransferase NSD2 (Homo sapiens, UniProt O96028); format: biochemical
T3 sequence (O96028 whole entry): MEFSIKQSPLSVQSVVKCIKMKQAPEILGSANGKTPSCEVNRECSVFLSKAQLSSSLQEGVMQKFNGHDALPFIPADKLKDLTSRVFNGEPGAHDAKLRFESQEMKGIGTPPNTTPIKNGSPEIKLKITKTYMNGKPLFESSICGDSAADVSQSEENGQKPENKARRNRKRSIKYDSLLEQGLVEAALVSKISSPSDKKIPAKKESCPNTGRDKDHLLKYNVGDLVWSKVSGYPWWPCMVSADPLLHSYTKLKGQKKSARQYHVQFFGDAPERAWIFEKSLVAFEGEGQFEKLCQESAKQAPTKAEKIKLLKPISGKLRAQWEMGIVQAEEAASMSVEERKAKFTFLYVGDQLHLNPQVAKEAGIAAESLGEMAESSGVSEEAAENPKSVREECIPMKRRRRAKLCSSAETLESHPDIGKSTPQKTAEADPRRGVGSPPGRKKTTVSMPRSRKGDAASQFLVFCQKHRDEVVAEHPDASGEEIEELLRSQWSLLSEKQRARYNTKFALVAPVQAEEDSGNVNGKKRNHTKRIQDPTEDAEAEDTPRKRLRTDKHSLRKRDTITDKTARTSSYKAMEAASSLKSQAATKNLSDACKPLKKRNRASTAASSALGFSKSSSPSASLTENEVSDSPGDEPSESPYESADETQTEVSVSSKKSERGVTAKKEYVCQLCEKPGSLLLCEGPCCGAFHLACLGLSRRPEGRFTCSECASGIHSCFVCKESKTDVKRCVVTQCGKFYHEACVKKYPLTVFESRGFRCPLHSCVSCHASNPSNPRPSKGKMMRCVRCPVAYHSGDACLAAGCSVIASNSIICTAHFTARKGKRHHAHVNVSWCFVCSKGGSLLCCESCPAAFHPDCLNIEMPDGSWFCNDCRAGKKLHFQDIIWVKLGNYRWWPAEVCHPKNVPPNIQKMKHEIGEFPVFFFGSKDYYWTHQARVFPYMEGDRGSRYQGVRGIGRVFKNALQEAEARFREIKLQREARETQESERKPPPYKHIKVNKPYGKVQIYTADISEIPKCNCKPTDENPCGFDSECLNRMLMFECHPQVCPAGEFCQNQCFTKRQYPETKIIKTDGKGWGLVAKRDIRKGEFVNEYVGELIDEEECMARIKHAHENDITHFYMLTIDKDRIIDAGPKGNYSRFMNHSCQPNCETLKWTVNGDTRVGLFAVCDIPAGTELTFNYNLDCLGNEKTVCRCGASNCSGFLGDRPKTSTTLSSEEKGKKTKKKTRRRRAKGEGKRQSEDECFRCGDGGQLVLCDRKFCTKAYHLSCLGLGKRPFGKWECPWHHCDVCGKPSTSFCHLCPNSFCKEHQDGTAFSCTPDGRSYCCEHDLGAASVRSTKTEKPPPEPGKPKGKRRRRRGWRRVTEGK

[12] = target: T4, Neuropeptides B/W receptor type 1 (Homo sapiens, UniProt P48145); experiment: Fluorescence-based dose response cell-based high throughput screening assay to identify antagonists of the G-protein coupled receptor 7 (GPR7). [Related pubchem assays: 1952 (Screening assay (GPR7 antagonists).), 1880 (Summary AID.)]; format: functional
T4 sequence (P48145 whole entry): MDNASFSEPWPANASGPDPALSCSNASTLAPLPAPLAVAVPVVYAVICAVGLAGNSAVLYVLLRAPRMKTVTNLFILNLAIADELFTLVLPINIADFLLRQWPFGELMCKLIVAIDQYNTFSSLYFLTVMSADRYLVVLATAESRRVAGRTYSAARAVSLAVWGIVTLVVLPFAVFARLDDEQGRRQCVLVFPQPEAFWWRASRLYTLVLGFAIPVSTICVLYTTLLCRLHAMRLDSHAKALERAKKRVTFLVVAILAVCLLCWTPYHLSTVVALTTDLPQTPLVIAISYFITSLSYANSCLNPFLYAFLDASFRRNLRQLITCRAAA

[13] = target: Melanin-concentrating hormone receptor 1 (Homo sapiens, UniProt Q99705); experiment: Fluorescence-based counterscreen for antagonists of the G-protein coupled receptor 7 (GPR7): cell-based high throughput dose response assay to identify antagonists of the melanin-concentrating hormone receptor 1 (MCHR1).; format: functional
Sequence of Melanin-concentrating hormone receptor 1 (Q99705 whole entry): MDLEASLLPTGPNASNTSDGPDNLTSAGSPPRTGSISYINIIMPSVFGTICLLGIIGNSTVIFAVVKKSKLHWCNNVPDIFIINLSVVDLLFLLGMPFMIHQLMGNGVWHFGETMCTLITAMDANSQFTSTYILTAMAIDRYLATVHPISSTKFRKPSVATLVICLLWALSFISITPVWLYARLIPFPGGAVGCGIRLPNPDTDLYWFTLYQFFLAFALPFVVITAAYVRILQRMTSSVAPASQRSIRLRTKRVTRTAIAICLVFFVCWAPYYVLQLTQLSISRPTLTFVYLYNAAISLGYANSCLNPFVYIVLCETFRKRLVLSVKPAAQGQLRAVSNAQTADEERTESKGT

[14] = inhibitors of intracellular T. cruzi replication, confirmation, NIH3T3 host cells, beta-gal luminescence (AID 2044); format: functional, cell-based;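 also: intracellular parasites grown in NIH/3T3 mouse fibroblasts as host cells; luminescent beta-galactosidase reporter signal from transgenic T. cruzi replicating inside host cells; inhibitors lower the luminescence signal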
[15] = cytotoxicity toward NIH3T3 fibroblasts, dose response, counter-screen, cell-based, ATP luminescence, mouse fibroblasts (AID 2010); format: functional;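 also: cells exposed to compound for about 90 hours before reading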
Streptococcus = experiment: Luminescence Microorganism-Based Dose Response Follow up to Identify Compounds Cytotoxic to Streptococcus. [Related pubchem assays: 1677 (Project Summary), 1915, 1914, 1902 (Retest at Dose), 1900 (Counter Screen), 1662 (Primary HTS)]; format: functional, organism-based
[16] = target: Lysosomal acid glucosylceramidase (Homo sapiens, UniProt P04062); experiment: Dose response cell-based high throughput screening assay to identify enhancers of beta-glucosidase activity. [Related pubchem assays: 784 ]; format: functional
[17] = target: T5, Eukaryotic translation initiation factor 2-alpha kinase 3 (Homo sapiens, UniProt Q9NZJ5); experiment: Dose response cell-based high-throughput screening assay to measure PERK inhibition. [Related pubchem assays: 1416 ]; format: functional
T5 sequence (Q9NZJ5 whole entry): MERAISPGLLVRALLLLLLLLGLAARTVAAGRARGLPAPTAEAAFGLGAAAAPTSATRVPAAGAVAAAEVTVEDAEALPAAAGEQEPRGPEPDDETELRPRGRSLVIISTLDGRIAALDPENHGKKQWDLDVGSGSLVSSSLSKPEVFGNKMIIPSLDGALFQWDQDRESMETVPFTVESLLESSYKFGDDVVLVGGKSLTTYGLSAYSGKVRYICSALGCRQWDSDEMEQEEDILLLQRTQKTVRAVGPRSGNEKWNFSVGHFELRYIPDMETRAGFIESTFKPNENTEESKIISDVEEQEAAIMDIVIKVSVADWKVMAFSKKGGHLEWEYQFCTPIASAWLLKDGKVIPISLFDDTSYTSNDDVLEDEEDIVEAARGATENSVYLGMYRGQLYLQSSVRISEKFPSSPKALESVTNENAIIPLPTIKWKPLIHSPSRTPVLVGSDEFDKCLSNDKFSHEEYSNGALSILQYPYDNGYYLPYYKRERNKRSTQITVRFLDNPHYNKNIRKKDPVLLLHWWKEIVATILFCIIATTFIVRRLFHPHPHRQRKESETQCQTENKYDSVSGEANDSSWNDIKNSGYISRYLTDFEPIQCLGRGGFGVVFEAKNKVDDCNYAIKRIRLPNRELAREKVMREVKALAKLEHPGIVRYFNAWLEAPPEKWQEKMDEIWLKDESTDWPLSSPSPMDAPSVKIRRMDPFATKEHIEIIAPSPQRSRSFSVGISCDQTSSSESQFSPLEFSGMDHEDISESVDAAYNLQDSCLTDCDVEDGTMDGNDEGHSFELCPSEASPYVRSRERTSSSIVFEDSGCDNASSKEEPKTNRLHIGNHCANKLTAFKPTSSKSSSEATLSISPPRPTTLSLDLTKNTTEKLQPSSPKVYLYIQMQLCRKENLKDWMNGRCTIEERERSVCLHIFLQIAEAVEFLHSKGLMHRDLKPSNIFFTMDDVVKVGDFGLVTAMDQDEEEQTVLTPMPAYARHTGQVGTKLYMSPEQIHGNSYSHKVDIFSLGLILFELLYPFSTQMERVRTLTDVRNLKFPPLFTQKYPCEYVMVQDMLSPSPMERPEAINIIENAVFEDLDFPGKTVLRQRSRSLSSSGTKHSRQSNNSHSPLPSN

[18] = target: T5, Eukaryotic translation initiation factor 2-alpha kinase 3; experiment: Counterscreen assay for PERK inhibitors: Dose response cell-based high throughput screening assay to measure inhibition of PERK at 6 hours. [Related pubchem assays: 1522, 1416 ]; format: functional
[19] = A Cell Based Secondary Assay To Explore Cytotoxicity of Compounds that Sensitize Mycobacterium Tuberculosis to Beta-Lactam Antibiotics.; format: functional

## C=CCN1C=CC(=CC=C(C#N)C#N)C=C1
Leucine aminopeptidase
  IC50: 72.2 µM (active)
[1]
  IC50: > 55.7 µM (not active)
Insulin-degrading enzyme
  IC50: 10.4 µM (not active)
[2]
  EC50: > 100 µM (active)

## CCOC(=O)OCC1OC(C#Cc2ccccc2)C=CC1Oc1cccc(N(C)C)c1 (stereo unspecified)
Cytochrome P450 2D6
  AC50: 3.98 µM (inconclusive)

## CCn1nc([N+](=O)[O-])c(C(C#N)c2nc3cc(C(F)(F)F)ccc3s2)c(Cl)c1=O (stereo unspecified)
HEK293 [3]
  EC50: 6.94 µM (active)
HEK293 [4]
  IC50: 2.78 µM (active)
[5]
  IC50: > 50 µM (not active)
HEK293 [6]
  IC50: 11 µM (active)
[7]
  IC50: 11.9 µM (active)
HEK293 [8]
  IC50: 3.47 µM (inactive)
[9]
  IC50: > 50 µM (not active)
[10]
  IC50: 3.87 µM (active)
Nonstructural protein 1
  IC50: 19.9 µM (active)
Vero
  CC50: > 40 µM (active)
Genome polyprotein
  IC50: 57.5 µM (active)
[11]
  AC50: 19 µM (active)

## CC(C)C(=O)N1CCN(c2ccccc2NC(=O)c2ccc([N+](=O)[O-])o2)CC1
[12]
  IC50: > 43.8 µM (not active)
[13]
  IC50: 64.4 µM (not active)
[14]
  EC50: 0.431 µM (active)
[15]
  EC50: > 60 µM (not active)

## CN(C)C1C(=O)C(C(N)=O)C(=O)C2(O)C(=O)C3C(=O)c4c(O)cccc4C(C)(O)C3CC12 (stereo unspecified)
Streptococcus
  EC50: 0.402 µM (active)

## CCOC(=O)N1CCC2(CC1)C(C#N)=C(N)Oc1c2c(C)nn1-c1cccc(Cl)c1
[16]
  EC50: > 10 µM (not active)

## Cc1cscc1NC(=O)/C=C/C(=O)O
[17]
  EC50: > 55.7 µM (not active)
[18]
  EC50: > 55.7 µM (not active)

## O=C(CSc1nnc(SCc2ccccc2)s1)N/N=C/c1ccc(Cl)cc1Cl
[19]
  CC50: 38.4 µM (active)
